Assays:
Spodoptera litura [1] = assay: Insecticidal activity against last-instar Spodoptera litura larvae assessed as normal pupae injected at 10 ug/larvae (reference value: 100%); type: functional
Mamestra brassicae [2] = assay: Insecticidal activity against last-instar Mamestra brassicae larvae assessed as partial pupation at 50 ug/larvae topical application (reference value: 10%); type: functional
Mamestra brassicae [3] = assay: Insecticidal activity against last-instar Mamestra brassicae larvae assessed as wing pad separation injected at 50 ug/larvae (reference value: 0%); type: functional
Spodoptera litura [4] = assay: Insecticidal activity against last-instar Spodoptera litura larvae assessed as wing pad separation injected at 2 ug/larvae (reference value: 100%); type: functional
Mamestra brassicae [5] = assay: Insecticidal activity against last-instar Mamestra brassicae larvae assessed as partial pupation injected at 50 ug/larvae (reference value: 10%); type: functional
Mamestra brassicae [6] = assay: Insecticidal activity against last-instar Mamestra brassicae larvae assessed as partial pupation at 50 ug/larvae oral administration (reference value: 10%); type: functional
Mamestra brassicae [7] = assay: Insecticidal activity against last-instar Mamestra brassicae larvae assessed as normal pupae injected at 10 ug/larvae (reference value: 90%); type: functional
Spodoptera litura [8] = assay: Insecticidal activity against last-instar Spodoptera litura larvae assessed as partial pupation injected at 10 ug/larvae (reference value: […]); type: functional
Mamestra brassicae [9] = assay: Insecticidal activity against last-instar Mamestra brassicae larvae assessed as normal pupae at 50 ug/larvae topical application (reference value: 90%); type: functional
[10] = Inhibition of Rhizoctonia solani beta-glucosidase; details: read-out: I50
Spodoptera litura [11] = assay: Insecticidal activity against last-instar Spodoptera litura larvae assessed as larval pupal intermediate at 50 ug/larvae topical application (reference value: […]); type: functional
Spodoptera litura [12] = assay: Insecticidal activity against last-instar Spodoptera litura larvae assessed as wing pad separation injected at 10 ug/larvae (reference value: 100%); type: functional
Mamestra brassicae [13] = assay: Insecticidal activity against last-instar Mamestra brassicae larvae assessed as wing pad separation injected at 5 ug/larvae (reference value: 0%); type: functional
Spodoptera litura [14] = assay: Insecticidal activity against last-instar Spodoptera litura larvae assessed as larval pupal intermediate injected at 2 ug/larvae (reference value: […]); type: functional
Mamestra brassicae [15] = assay: Insecticidal activity against last-instar Mamestra brassicae larvae assessed as wing pad separation injected at 1 ug/larvae (reference value: 0%); type: functional
Mamestra brassicae [16] = assay: Insecticidal activity against last-instar Mamestra brassicae larvae assessed as normal pupae at 50 ug/larvae oral administration (reference value: 90%); type: functional
Spodoptera litura [17] = assay: Insecticidal activity against last-instar Spodoptera litura larvae assessed as larval pupal intermediate injected at 0.4 ug/larvae (reference value: […]); type: functional
Spodoptera litura [18] = assay: Insecticidal activity against last-instar Spodoptera litura larvae assessed as partial pupation injected at 50 ug/larvae (reference value: 100%); type: functional
Spodoptera litura [19] = assay: Insecticidal activity against last-instar Spodoptera litura larvae assessed as partial pupation injected at 0.4 ug/larvae (reference value: […]); type: functional
Spodoptera litura [20] = assay: Insecticidal activity against last-instar Spodoptera litura larvae assessed as normal pupae injected at 50 ug/larvae (reference value: 100%); type: functional
Mamestra brassicae [21] = assay: Insecticidal activity against last-instar Mamestra brassicae larvae assessed as larval-pupal intermediate injected at 5 ug/larvae (reference value: 0%); type: functional
Mamestra brassicae [22] = assay: Insecticidal activity against last-instar Mamestra brassicae larvae assessed as wing pad separation at 50 ug/larvae oral administration (reference value: 0%); type: functional
Vacuolar acid trehalase = biological target: T1, Vacuolar acid trehalase (Saccharomyces cerevisiae (strain ATCC 204508 / S288c) (Baker's yeast), UniProt P48016); assay: Inhibition of Saccharomyces cerevisiae trehalase; details: read-out: I50
T1 sequence (P48016 whole entry): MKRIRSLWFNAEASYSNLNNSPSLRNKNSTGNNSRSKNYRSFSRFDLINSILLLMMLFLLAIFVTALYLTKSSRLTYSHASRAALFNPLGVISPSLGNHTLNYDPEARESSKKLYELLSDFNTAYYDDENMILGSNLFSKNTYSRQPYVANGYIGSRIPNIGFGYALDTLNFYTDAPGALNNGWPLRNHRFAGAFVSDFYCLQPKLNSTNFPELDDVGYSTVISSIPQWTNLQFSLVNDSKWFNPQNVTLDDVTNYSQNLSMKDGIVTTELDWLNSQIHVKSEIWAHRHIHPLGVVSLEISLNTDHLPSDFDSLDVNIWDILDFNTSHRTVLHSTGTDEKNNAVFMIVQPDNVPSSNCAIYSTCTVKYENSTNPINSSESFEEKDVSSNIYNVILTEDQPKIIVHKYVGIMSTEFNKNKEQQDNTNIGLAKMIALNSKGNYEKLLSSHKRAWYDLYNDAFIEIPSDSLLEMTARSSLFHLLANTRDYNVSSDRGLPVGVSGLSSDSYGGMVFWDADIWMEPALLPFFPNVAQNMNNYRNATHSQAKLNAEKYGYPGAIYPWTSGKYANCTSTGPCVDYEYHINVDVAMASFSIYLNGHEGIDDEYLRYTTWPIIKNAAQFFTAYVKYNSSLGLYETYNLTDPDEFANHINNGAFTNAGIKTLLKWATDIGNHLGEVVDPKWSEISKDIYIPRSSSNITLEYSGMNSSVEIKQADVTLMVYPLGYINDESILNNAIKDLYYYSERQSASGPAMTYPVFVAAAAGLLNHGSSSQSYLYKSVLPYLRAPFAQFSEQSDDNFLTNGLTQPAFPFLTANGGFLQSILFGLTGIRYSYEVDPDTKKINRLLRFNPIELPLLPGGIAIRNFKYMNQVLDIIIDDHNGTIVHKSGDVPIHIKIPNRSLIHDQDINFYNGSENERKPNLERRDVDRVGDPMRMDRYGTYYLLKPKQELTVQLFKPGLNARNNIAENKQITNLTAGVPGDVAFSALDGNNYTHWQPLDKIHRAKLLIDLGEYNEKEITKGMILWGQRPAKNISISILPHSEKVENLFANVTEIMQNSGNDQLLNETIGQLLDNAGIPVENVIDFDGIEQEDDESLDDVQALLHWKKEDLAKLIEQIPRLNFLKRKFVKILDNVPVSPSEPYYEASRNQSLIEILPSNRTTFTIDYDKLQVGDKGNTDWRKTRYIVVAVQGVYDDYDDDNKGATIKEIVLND

Mamestra brassicae [23] = assay: Insecticidal activity against last-instar Mamestra brassicae larvae assessed as partial pupation injected at 1 ug/larvae (reference value: 10%); type: functional
Spodoptera litura [24] = assay: Insecticidal activity against last-instar Spodoptera litura larvae assessed as partial pupation at 50 ug/larvae topical application (reference value: […]); type: functional
Spodoptera litura [25] = assay: Insecticidal activity against last-instar Spodoptera litura larvae assessed as larval pupal intermediate injected at 50 ug/larvae (reference value: […]); type: functional
Mamestra brassicae [26] = assay: Insecticidal activity against last-instar Mamestra brassicae larvae assessed as mortality; type: functional
Mamestra brassicae [27] = assay: Insecticidal activity against last-instar Mamestra brassicae larvae assessed as normal pupae injected at 50 ug/larvae (reference value: 90%); type: functional

OCC1=C[C@H](N[C@H]2C[C@H](CO)[C@@H](O)[C@H](O)[C@H]2O)[C@H](O)[C@@H](O)[C@@H]1O [VALIDOXYLAMINE A]
Activity (Spodoptera litura [1]): 20% | Activity (Mamestra brassicae [2]): 40% | Activity (Mamestra brassicae [3]): 0% | Activity (Spodoptera litura [4]): 5% | Activity (Mamestra brassicae [5]): 0% | Activity (Mamestra brassicae [6]): 0% | Activity (Mamestra brassicae [7]): 0% | Activity (Spodoptera litura [8]): 40% | Activity (Mamestra brassicae [9]): 60% | IC50 [10]: > 1000 µM | Activity (Spodoptera litura [11]): 5% | Activity (Spodoptera litura [12]): 15% | Activity (Mamestra brassicae [13]): 7% | Activity (Spodoptera litura [14]): 15% | Activity (Mamestra brassicae [15]): 20% | Activity (Mamestra brassicae [16]): 90% | Activity (Spodoptera litura [17]): 0% | Activity (Spodoptera litura [18]): 30% | Activity (Spodoptera litura [19]): 10% | Activity (Spodoptera litura [20]): 0% | Activity (Mamestra brassicae [21]): 60% | Activity (Mamestra brassicae [22]): 10% | IC50 (Vacuolar acid trehalase): 0.003 µM | Activity (Mamestra brassicae [23]): 27% | Activity (Spodoptera litura [24]): 5% | Activity (Spodoptera litura [25]): 58% | LD50 (Mamestra brassicae [26]): <1 µg | Activity (Mamestra brassicae [27]): 0%

Source: ChEMBL document CHEMBL3044761, “Lethal Activity of a Trehalase Inhibitor, Validoxylamine A, against Mamestra brassicae and Spodoptera litura” (J Pestic Sci, 1994)
